# Literature values as cited in patent US8715648B2, “Method for treating obesity with anti-obesity formulations and omega 3 fatty acids for the reduction of body weight in cardiovascular disease patients (CVD) and diabetics” (Pivotal Therapeutics Inc., priority 2011, dated 2014).
# Molecular target: CB1R (Homo sapiens, UniProt P21554)
# Settings: in vivo
# CB1R, sequence (P21554 whole entry): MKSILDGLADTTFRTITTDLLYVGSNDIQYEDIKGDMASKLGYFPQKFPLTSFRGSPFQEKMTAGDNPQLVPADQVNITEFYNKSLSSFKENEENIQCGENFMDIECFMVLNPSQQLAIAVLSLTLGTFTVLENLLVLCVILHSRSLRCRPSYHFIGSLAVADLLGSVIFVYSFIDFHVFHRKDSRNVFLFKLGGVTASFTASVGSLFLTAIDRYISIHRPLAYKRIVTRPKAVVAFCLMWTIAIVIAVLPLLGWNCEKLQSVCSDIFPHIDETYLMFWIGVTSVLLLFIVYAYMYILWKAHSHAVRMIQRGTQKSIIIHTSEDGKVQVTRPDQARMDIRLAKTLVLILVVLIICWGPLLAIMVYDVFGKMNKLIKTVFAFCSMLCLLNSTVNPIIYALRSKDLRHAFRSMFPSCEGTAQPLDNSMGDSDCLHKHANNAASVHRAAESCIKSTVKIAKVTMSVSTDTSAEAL
smiles,measurement,value
"CCNC1(C(N)=O)CCN(c2ncnc3c2nc(-c2ccccc2Cl)n3-c2ccc(Cl)cc2)CC1.Cl [CP-945,598]",Reason for failure of phase III clinical trials,"psychiatric adverse reactions, including severe depression and anxiety"
